{
  "source": "patent US8137707B2",
  "about": "“Method of obtaining an active ingredient increasing cutaneous cell and tissue longevity, active ingredients and compositions” (Societe Industrielle Limousine d'Application Biologique, …, priority 2006, dated 2012)",
  "tested_on": "rat-tail collagen",
  "test": "Glycation of collagen induced by glycoaldehyde, fluorescence of glycation products",
  "format": "biochemical",
  "settings": "32 μl of aminoguanidine at 3.39 M, 14 days at 37° C.",
  "procedure": "The study is carried out according to the operating protocol that follows.\nOn D0, samples to be tested are prepared in sterile hemolysis tubes: • a non-glycated collagen reference, containing • 1 ml of 3 mg/ml rat-tail collagen, • a glycated collagen reference, containing • 1 ml of 3 mg/ml rat-tail collagen, and • 0.3 ml of a glycoaldehyde solution at 143 mM, inducing the glycation reaction, • a positive reference, containing • 1 ml of 3 mg/ml of rat-tail collagen, • 0.3 ml of a solution of glycoaldehyde at 143 mM, inducing the glycation reaction, and • 32 μl of aminoguanidine at 3.39 M, inhibiting the glycation reaction. • product tests, containing • 1 ml of 3 mg/ml rat-tail collagen, • 0.3 ml of a solution of glycoaldehyde at 143 mM, inducing the glycation reaction, and • the active principle according to the invention at 1%, 2.5% and 5%.\nThe samples are incubated at 37° C. protected from light for 14 days.\nOn D14, the fluorescence emitted by the glycation products formed is measured with the aid of a spectrofluorimeter.",
  "data": [
    {"compound": "N=C(N)NN", "note": "[Positive reference, aminoguanidine]", "values": [
      {"measurement": "Fluorescence Value", "setting": "glycated collagen reference 449", "value": 189},
      {"measurement": "Effectiveness (%)", "setting": "versus glycated collagen reference", "value": "−58", "unit": "%"}
    ]}
  ]
}
